Measured values reported in patent US9801922B2, “Compositions and methods of treating cancer” (UNIVERSITY OF IOWA RESEARCH FOUNDATION, priority 2011, dated 2017).

Experiments:
SUM159 cells [1] = assay: Glutathione analysis (total GSH, GSSG); assay type: cell-based, human; settings: for % GSSG: untreated 1.13%
Method: FIG. 18: Intracellular GSH&GSSG measured in BSO, DTPP, and AUR exposed SUM159 cells. Asynchronously growing cultures of SUM159 were plated and treated as described in FIG. 1. Cells were harvested and scraped in PBS at 4° C. Whole cell homogenates were used for biochemical analysis of total GSH & GSSG levels. Errors represent Mean ±1 SD of 4 samples from two separate experiments (n=4).
Glutathione analysis: SUM159 Cells were plated and treated with BSO, DTPP and AUR as described above. When cells were grown to 70-80% confluency on 100 mm dishes and scraped in PBS at 4° C., centrifuged, and the cell pellets were frozen at −20° C. until analysis. Samples were thawed and whole homogenates were prepared as described and total glutathione (GSH+GSSG) was determined using a recycling method (Spitz, D. R.; Malcolm, R. R.; Roberts, R. J. Cytotoxicity and metabolism of 4-hydroxy-2-nonenal and 2-nonenal in H2O2-resistant cell lines. Do aldehydic by-products of lipid peroxidation contribute to oxidative stress? Biochem J 267:453-459; 1990; Griffith, O. W. Determination of glutathione and glutathione disulfide using glutathione reductase and 2-vinylpyridine. Anal Biochem 106:207-212; 1980). All biochemical determinations were normalized to the protein content using the method of bicinchoninic acid protein assay.

[2] = test system: normal human mammary epithelial cells (HMEC); assay: Clonogenic cell survival, HMEC; assay type: cell-based; settings: 100 μM BSO, 1 μM DTPP 24 h, 500 nM AUR 15 min
Method: FIGS. 1A-D: BSO, DTPP and AUR treated SUM159, MDA-MB231 and HMEC Clonogenic survival. In Panel A (SUM 159), B (MDA-MB231) and C(HMEC), 150,000 cells/dish SUM159 or MDA-MB231 and 300,000 cells/dish were plated in 60 mm tissue culture dishes. After 48 hours, cells were given fresh complete HMECs media and treated with 100 μM BSO+/1 μM DTPP for 24 hours. 500 nM AUR were added 15 mins before the trypsinization of cells for clonogenic survival assay. In panel A-C, The error bars represent mean±1 SD of n=1 treatment dishes done in 3 separate experiments where each treatment dish was used to prepare 6-10 replicate cloning dishes for analysis. *p<0.001 as compared to Control. […] Mice growing Sum159 xenograft tumors were treated with 100 μM DTPP in drinking water for 2 weeks followed by i.p. injections of BSO 675 mg/kg followed in 2 hrs with Au 2.7 mg/kg. The day following injections tumors were harvested, digested and stained for ALDH positive cells. Each bar represents an average of at least three tumors. Error bars are SEM. *p<0.05 vs. control.
FIG. 2: BSO and AUR treated SUM159 dose response Clonogenic survival. 150,000 cells/dish SUM159 were plated in 60 mm tissue culture dishes. After 48 hours, cells were given fresh complete HMECs media and treated with 100 μM BSO 24 hours. 500 nM AUR were added 15 mins, 30 mins, 45 mins, 1 hr, 1.5 hrs and 3 hrs before the trypsinization. Cells were then collected and plated for clonogenic survival. […]
Clonogenic cell survival: To determine whether the DTPP exposure alters the cell proliferation in MDA-MB231, SUM159 and HMECs, 150,000 cells/dish of MDA-MB231 and SUM159 cells, and 300,000 cells/dish HMECs were plated in 60 mm tissue culture dishes. […] Attached and floating cells in the experimental dishes were collected after trypsinization with 1× trypsin-EDTA (CellGro, Herndon, Va., USA), centrifuged, resuspended in fresh media, and counted using a Coulter counter. […]

SUM159 cells [3] = assay: MitoSOX red oxidation, SUM159; assay type: cell-based, human
Method: (§1) FIGS. 4A-4C: MitoSOX oxidation in SUM159, MDA-MB231 and HMECs cells treated with BSO, DTPP and AUR. Asynchronously growing cultures of SUM159 (Panel A) MDA-MB231 (Panel B) and HMECs (Panel C) were plated and treated as described in FIG. 1. Monolayer cultures were harvested and trypsinized, washed once with PBS and labeled 20 minutes with 2 μM MitoSOX (in 0.1% DMSO) in PBS containing 5 mM pyruvate at 37° C. Each sample was then analyzed for the Mean fluorescence Intensity (MFI) of 10,000 cells by flow cytometry. Samples were assayed in triplicate; mean±1 SD of 1 experiment containing 3 treatment dishes per group (n=3), * or ^p<0.001 as compared to Control.
(§2) MitoSOX™ red oxidation to estimate mitochondrial superoxide production: To determine if DTPP can alter steady-state levels of superoxide originating from mitochondria in SUM159, MDA-MB231 and HMEC cells, the cationic superoxide sensitive dye, MitoSOX™red (Molecular Probes), was used. Cells were plated and treated as described earlier in clonogenic survival experiment. After the exposure, cells were trypsinized and washed with 5 mM/L pyruvate containing PBS once then labeled with MitoSOX™red (2 μM, in 0.1% DMSO, 20 minutes) at 37° C. After labeling, cells were kept on ice. Samples were analyzed using a FACScan flowcytometer (Becton Dickinson Immunocytometry System, INC., Mountain View, Calif.) (excitation 488 nm, emission 585 nm band-pass filter). The mean fluorescence intensity of 10,000 cells was analyzed in each sample and corrected for autofluorescence from unlabeled cells. The MFI data was normalized to control levels.

MDA-MB231 cells = assay: MitoSOX red oxidation, MDA-MB231; assay type: cell-based, human
Method: as §1, §2

HMECs = assay: MitoSOX red oxidation, HMEC; assay type: cell-based, human
Method: as §1, §2

[4] = 1 μM DTPP, 100 μM BSO 24 h, 500 nM AUR 15 min

SMILES	total GSH, in words (SUM159 cells [1]; 24 hours)	% GSSG (SUM159 cells [1]) [%]	cytotoxicity (clonogenic survival), in words [2]	change in MitoSOX oxidation, in words (SUM159 cells [3]; SUM159)	change in MitoSOX oxidation, in words (MDA-MB231 cells)	change in MitoSOX oxidation, in words (HMECs)	increase in GSSG and % GSSG compared to untreated cells (SUM159 cells [1]) [fold]	GSSG (SUM159 cells [1]; untreated 0.06) [nmole GSSG/mg protein]	increase in MitoSOX red oxidation relative to control (SUM159 cells [3]; SUM159, 1 μM DTPP, 100 μM BSO 24 h, 500 nM AUR 15 min) [fold]	total amount of mitochondrial O2.- of SUM159 cells relative to HMECs after DTPP (SUM159 cells [3]; SUM159 vs HMEC) [fold]	increase in MitoSOX red oxidation relative to control (MDA-MB231 cells; [4]) [fold]	increase in MitoSOX oxidation (HMECs; [4]) [fold]	effect on glutathione metabolism, in words (SUM159 cells [1])
CCCCS(=N)(=O)CCC(N)C(=O)O [BSO, L-buthionine-[S,R]-sulfoximine, reference compound]	significant decreases in total GSH	4.88	did not cause any significant cytotoxicity	did not exhibit any change in MitoSOX oxidation	did not exhibit any change in MitoSOX oxidation	no effects on MitoSOX oxidation							
CCCCCCCCCC[P+](c1ccccc1)(c1ccccc1)c1ccccc1 [DTPP, Decyl-Triphenylphosphonium]		3.65	did not cause any significant cytotoxicity				~3	0.26	9	2	12	10	
CC[PH](CC)(CC)[Au][S][C@@H]1O[C@H](COC(C)=O)[C@@H](OC(C)=O)[C@H](OC(C)=O)[C@H]1OC(C)=O [AUR, S-triethylphosphinegold(I)-2,3,4,6-tetra-O-acetyl-1-thio-β-D-glucopyranoside]			did not cause any significant cytotoxicity	did not exhibit any change in MitoSOX oxidation	did not exhibit any change in MitoSOX oxidation	no effects on MitoSOX oxidation							not capable of altering the glutathione metabolism
